Here are results for 1 compound from article PMC11912122, “Gut in Tube—Continuous Measurement of Metabolic Crosstalk between Cell Populations in Heterogeneous Samples by NMR Imaging” (Analytical Chemistry, 2025).

Square brackets hold non-standard residues; d marks the D form. Peptide text beside a SMILES is read from it. Phe(4-F) = N[C@@H](Cc1ccc(F)cc1)C(=O)O

The data set concerns Cocultures of colonocytes (Caco-2, HT29, T84, SW620). Description: Cell viability assay (MTT). It counts as cell-based, human. The note with it: peptide 1.6 mg/mL, 37 °C, 3 h, OD590, % viability vs control, n=3. The method, then:
Individual cell lines (Caco-2, HT29, T84, and SW620) were grown from frozen stocks, prepared at ca. 1 million/mL. Cells were seeded in a T-75 tissue culture flask, passaged once, and matured to ca. 10 million/mL in a T-175 flask in complete media. Cells were rinsed twice with Ca^2+/Mg^2+-free PBS (25 mL, CAS D8537), trypsinized, the trypsin deactivated with P/S-free complete media, all four lineages mixed in a 1:1:1:1 ratio, pelleted (300 rcf, 5 min), and resuspended in alginate (sodium alginate, CAS 9005–38–3, 1% w/v in P/S-free complete media). The cell suspension was extruded through a 200 μL pipet tip dropwise into cold CaCl2 (0.3 M in phosphate-buffered saline, PBS, CAS D8662, 15 °C) under stirring (100 r.p.m.). The cell spheres (Figures S1 and S2, Supporting Information (SI)) were removed from the CaCl2 solution, washed, and stored in P/S-free complete media before further use.
The effect of the peptide on cell viability was measured using a cell proliferation kit (CAS 11465007001). 3-[4,5-Dimethylthiazole-2-yl]-2,5-diphenyltetrazolium bromide (MTT) was solubilized in PBS (5 mg/mL) and filter-sterilized (0.22-μm). Cocultures of colonocytes were grown in phenol red-free complete media in 24-well plates to ca. 50% confluency. […] The absorbance (OD590) in each well was read, and % viability was calculated against the control (Figure S6, SI).

Consider `C[C@H](NC(=O)[C@@H](N)Cc1ccc(F)cc1)C(=O)N[C@@H](Cc1c[nH]cn1)C(=O)N[C@@H](Cc1c[nH]c2ccccc12)C(N)=O` [p-F-Phe-Ala-His-Trp] (H-[Phe(4-F)]AHW-NH2), for which the “effect on colonocyte viability” value is “no significant (p > 0.05) effect and ns”.
